Entries after “also recorded” stand apart in the source; their conditions may differ. Read-outs that look alike come from different tables or passages of the source.
Assays:
[1] = tested on: porcine cerebral arteries; test: In vitro tissue bath vasorelaxation of precontracted porcine cerebral arteries
COX-2 = COX-2 enzyme activity: PGE2 from added arachidonic acid in LPS-treated RAW 264.7 cells; type: cell-based, mouse
[2] = tested on: LPS-induced NO production in RAW264.7 macrophages; test: LPS-induced nitrite (NO) production in RAW264.7 macrophages, Griess reaction; type: cell-based, mouse; conditions: for NO: 24 hours
Experimental: (§1) Cells. RAW264.7, a mouse macrophage cell line, was obtained from American Type Culture Collection. Cells were cultured in RPMI-1640 medium (available from Gibco Life Technology, in Gaithersburg, Md.) supplemented with 2 mM L-glutamine, antibiotics (100 units/ml penicillin-A and 100 units/ml streptomycin) and 10% heat-inactivated fetal bovine serum (Gibco/BRL) and maintained at 37° C in a humidified incubator containing 5% CO2.
Nitrite assay. The nitrite concentration in the medium was measured as an indicator of NO production according to the Griess reaction (Kim et al., J. Immunol. 153: 4741-4748). One hundred microliters of each supernatant was. mixed with the same volume of Griess reagent (1% sulfanilamide in 5% phosphoric acid and 0. 1% naphthylethylenediamine dihydrochloride in water); absorbency of the mixture at 550 nm was determined with an enzyme-linked immunosorbent assay plate reader (Dynatech MR-7000; Dynatech Labs, Chantilly, Va.).
The effects of flavonoids, ellagitannins, anthraquinones on LPS-induced NO production in macrophages were studied as follows. The chemical structures of two flavonoids (myricitrin, N1; oroxylin A, N2) four ellagitannins (penta-O-galloyl-β-glucopyranose, N3; woodfordin C, N4; onothein B, N5; cuphiin, N6), and two anthraquinones (emodin, N7; physcion, N8) that were used in the present study were shown in FIG. 1. The effects of these eight compounds on NO production in RAW264.7 macrophages were investigated. The accumulated nitrite in the culture medium was used as an index for NO synthesis from these cells. […]

iNOS [3] = test: LPS-induced iNOS expression in RAW264.7 macrophages (western/northern blot); type: cell-based, mouse; conditions: NLA (or L-NAME) plus LPS co-treated
Experimental: as §1
(§2) Western blots. Total cellular extract, cytosolic fractions (for IkB) and nuclear fraction (for p65 antibody) were prepared according to Muller et al., Immunobiology, 187, 233-256, 1993 and separated on sodium dodecyl sulfatepolyacrylamide minigels (8% for iNOS or COX-2, and 10% for IkB or p65) and transferred to immobilon polyvinylidene difluoride membranes (Millipore, Bedford, Mass.). The membrane was incubated overnight at 4° C. with 1% bovine serum albumin and then incubated with anti-iNos, COX-2, α-Tubulin monoclonal antibodies (Transduction Laboratories, Lexington, Ky.), anti-IkB or anti-p65 polyclonal antibodies (Santa Cruz Biochemicals, Santa Cruz, Calif.). iNOS, IkB, p65, Cox-2, α-Tubulin were detected by NBT and BCIP staining (Sigma Chemical Co., St. Louis, Mo.).
Northern blot analysis. Total RNA (20 μg/lane) were separated by electrophoresis on 1.2% agarose gel containing 6.7% formaldehyde and transformed to a Hybond-N nylon membrane (American Life Science) in 20×standard saline citrate (3 M sodium chloride and 0.3 M sodium citrate, pH 7.0). After heating at 80° C. for 2 hours and prehybridization for 4 hours, the filters were hybridized with ^32P-labeled murine iNOS cDNA probes at a concentration of 3×10^6 cpm/ml for 16-18 hours at 42° C. The probe was labeled with [α-32P] dCTP by using Random Primer labeling kit (Stratagene, La Jolla, Calif.). Then, the filters were washed, dried and autoradiographed with Kodak-X-Omat XAR-film using intensifying screens at −80° C.

iNOS [4] = test: Indirect iNOS enzyme assay: NO in medium of LPS-pretreated intact RAW 264.7 cells; type: cell-based, mouse
[5] = tested on: LPS-induced PGE2 production in RAW 264.7 macrophages; test: LPS-induced PGE2 production in RAW 264.7 macrophages (co-treatment); type: cell-based, mouse; conditions: for PGE2: 24 hours
Experimental: Un-stimulated RAW 264.7 macrophages in culture medium for 24 hours produced basal amount of PGE2 (1.5 ng/mL) in the medium.

NF-kB (p65) / IkB = test: Nuclear p65 / cytosolic IkB western blot in LPS-treated RAW264.7 macrophages; type: cell-based, mouse; conditions: 20 μg/ml, 100 ng/ml LPS for 30 minutes
Experimental: as §2
NF-kB is a transcription factor that is activated in response to stimulation by LPS, and activation of NF-kB is an essential factor in inducing iNOS gene expression in macrophages (Kim, Y. M., Biochem. Biophys. Res. Commun. 236, 655-660, 1997). To assess the effect of these compounds (20 μg/ml) on early stage of iNOS gene expression, the activation of NF-kB in RAW264.7 macrophages was examined using the electrophoretic mobility shift assay (EMSA) (FIGS. 6i and 6ii).

[6] = arteries without endothelial cells, U-46619
[7] = LPS + L-NAME (2 mM) + compound 40 μM
[8] = LPS + NLA (2 mM) + compound 40 μM

`Cc1cnc(C(=O)NCCc2ccc(S(=O)(=O)NC(=O)NC3CCCCC3)cc2)cn1` [glipizide, reference compound] was tested, and the “effect of the blocker/inhibitor on oroxylin A-induced relaxation” value (shortened to “effect of the blocker/inhibitor”) [1, 6] was “did not affect”.
For `COc1ccc2c(c1)c(CC(=O)O)c(C)n2C(=O)c1ccc(Cl)cc1` [indomethacin, reference compound], the PGE2 (COX-2; 20 μM for 30 min after LPS 6 hours, then arachidonic acid (100 μM) 15 min) was 2.0 ± 0.7 ng/mL and the “PGE2 production using added arachidonic acid as a substrate” value (COX-2; added after COX-2 induction by LPS) was “significantly inhibited”.
In the case of `COc1c(O)cc(O)c2c(=O)cc(-c3ccccc3)oc12` [wogonin, 5,7-dihydroxy-8-methoxy flavone], the NO [2, 7] is reported as 6.8 ± 0.5 μmole/4 × 10^5, the NO [2, 8] is reported as 6.7 ± 0.7 μmole/4 × 10^5 and the LPS-induced nitrite production ([2]; different concentrations together with LPS for 24 hours) is reported as “significant concentration-dependent inhibition”. The “increased expression of iNOS in NLA or L-NAME plus LPS treated cells” value (iNOS [3]) was “inhibited”, the NO in medium (iNOS [4]; 20 μM added for 12 hours after LPS (100 ng/ml) 12 hours pretreatment) was 16.5 ± 0.3 μM/6 × 10^5 cells and the NO in medium (iNOS [4]; 40 μM added for 12 hours after LPS (100 ng/ml) 12 hours pretreatment) was 16.3 ± 0.3 μM/6 × 10^5 cells. For the same compound, the PGE2 [5, 7] was 2.3 ± 0.7 ng/mL, the PGE2 [5, 8] was 2.1 ± 0.4 ng/mL and the “LPS-induced PGE2 production” value ([5]; co-treatment 20 and 40 μM, LPS (100 ng/mL) 24 hours) was “inhibited”.
In the case of “Iberiotoxin (QFTDVDCSVSKECWSVCKDLFGVDRGKCMGKKCRCYQ; UniProt P24663 1-37, looked up) [reference compound]”, the “effect of the blocker/inhibitor” value [1, 6] is reported as “slightly but significantly inhibited”.
For cuphiin D1, the “LPS-induced increase of nuclear p65 and decrease of cytosolic IkB” value (NF-kB (p65) / IkB) was “did not block”.
For oenothein B, the “LPS-induced increase of nuclear p65 and decrease of cytosolic IkB” value (NF-kB (p65) / IkB) was “significantly inhibited”.
For “tetraethylammonium [TEA, reference compound]”, the “effect of the blocker on oroxylin A-induced relaxation” value [1] was “significantly shifted the oroxylin A concentration response curves to the right; also recorded: almost abolished” and the “effect of the blocker/inhibitor” value [1] was “concentration-dependently (1-10 mM) inhibited; also recorded: blocked”.
